This is an account of results in patent publication EP0167935A2, “Anthracycline derivatives, a process for the production thereof, a pharmaceutical composition containing the same and their use as medicaments” (priority 1984, dated 1986).

A word on the IC50: it is the concentration needed to halve the response being measured.

One series relates to Leukemia L 1210. Put plainly: Anti-tumor effect for mice bearing Leukemia L 1210 (survival). In kind it is in vivo, CDF1 mice. Particulars: injected peritoneally for 10 days; for Percent survival (%): L 1210 1 x 10^5 cells/mouse i.p., 30 days observation, saline control = 100; for Toxicity remark in the percent survival cell: CDF1 mice bearing L 1210. On the procedure: (2) Anti-tumor effect for mice bearing Leukemia L 1210
A group of CDF1 mice were intraperitoneally transplanted with suspensions of leukemic cells L 1210 (1 x 10^5 cells/mouse). Immediately after the transplantation, a.25 mℓ each of the test compounds was injected peritoneally into the mice for 10 days. Observation was made for 30 days, and the percent survival for each test compound was determined, with 100 representing the number of days which the control mice group administered physiological saline survived.

The next series has as its system leukemic cells P 388. Nature of the series: Inhibition of the growth of cultured leukemic cells P 388 (two-day culture). In kind it is cell-based. Particulars: Mus musculus, P388, 48 h. The text has this: (1) Activity of inhibiting the growth of cultures leukemic cells P 3FB8
Where [1] appears, read: concentration giving 50% inhibition of growth of a two-day culture of P 388 cells vs untreated group, read-out: IC50.

≈ marks a conversion by molar mass, not a printed value. Read-outs that look alike come from different tables or passages of the source.

For `CCC1(O)CC(OC2CC(N(C)C)C(OC3CC4OC5CC(=O)C(C)OC5OC4C(C)O3)C(C)O2)c2cc3c(c(O)c2C1OC1CC(N(C)C)C(OC2CC4OC5CC(=O)C(C)OC5OC4C(C)O2)C(C)O1)C(=O)c1c(O)ccc(O)c1C3=O` (centres unmarked) [Compound 1-HSR, 1-hydroxyserirubicin], the “Percent survival (%)” value in the series with Leukemia L 1210 (Dose 0.0313 mg/kg/day) came out at 108%; in the series with Leukemia L 1210 (Dose 0.0625 mg/kg/day) it was 127%; with Leukemia L 1210 (Dose 0.125 mg/kg/day), 151%; in the series on Leukemia L 1210 (Dose 0.25 mg/kg/day) it was 145%; in the series on Leukemia L 1210 (Dose 0.5 mg/kg/day) it was 139%; in the series on Leukemia L 1210 (Dose 1 mg/kg/day), 114%. In the series with Leukemia L 1210 (Dose 1 mg/kg/day), the “Toxicity remark in the percent survival cell” value was “Toxin”. This molecule also had an IC50 in the series on leukemic cells P 388 of 12 ng/mL (≈ 10.2 nM).

In turn, `CCC1(O)CC(OC2CC(N(C)C)C(O)C(C)O2)c2c(O)c3c(c(O)c2C1OC1CC(N(C)C)C(OC2CC4OC5CC(=O)C(C)OC5OC4C(C)O2)C(C)O1)C(=O)c1cccc(O)c1C3=O` (centres unmarked) [DTR-B/7de-dF-CB, ditrisarubicin B/7 de-dF-CB] came in with an IC50 with leukemic cells P 388 of 21 ng/mL (≈ 22.3 nM).

Regarding `CCC1(O)CC(OC2CC(N(C)C)C(OC3CC4OC5CC(=O)C(C)OC5OC4C(C)O3)C(C)O2)c2c(O)c3c(c(O)c2C1OC1CC(N(C)C)C(O)C(C)O1)C(=O)c1cccc(O)c1C3=O` (centres unmarked) [DTR-B/10de-dF-CB], the IC50 in the series on leukemic cells P 388 (setting [1]) amounted to 9 ng/mL (≈ 9.56 nM).

`CCC1(O)CC(OC2CC(N(C)C)C(OC3CCC(OC4C=CC(=O)C(C)O4)C(C)O3)C(C)O2)c2c(O)c3c(c(O)c2C1OC1CC(N(C)C)C(OC2CC4OC5CC(=O)C(C)OC5OC4C(C)O2)C(C)O1)C(=O)c1cccc(O)c1C3=O` (centres unmarked) [DTR-CR, ditrisarubicin CR] came in with a concentration for half-maximal inhibition (IC50) with leukemic cells P 388 of 4 ng/mL (≈ 3.43 nM).

Consider `CCC1(O)CC(OC2CC(N(C)C)C(OC3CC4OC5CC(=O)C(C)OC5OC4C(C)O3)C(C)O2)c2c(O)c3c(c(O)c2C1OC1CC(N(C)C)C(OC2CCC(OC4CCC(=O)C(C)O4)C(C)O2)C(C)O1)C(=O)c1cccc(O)c1C3=O` (centres unmarked) [DTR-D, ditrisarubicin D], for which the “Percent survival (%)” value was determined as 97% in the series with Leukemia L 1210 (Dose 0.0078 mg/kg/day); 102% in the series on Leukemia L 1210 (Dose 0.0156 mg/kg/day); 125% in the series on Leukemia L 1210 (Dose 0.0313 mg/kg/day); 142% in the series with Leukemia L 1210 (Dose 0.0625 mg/kg/day); 114% with Leukemia L 1210 (Dose 0.125 mg/kg/day); 131% in the series on Leukemia L 1210 (Dose 0.25 mg/kg/day). The molecule also showed an IC50 in the series with leukemic cells P 388 of 4 ng/mL (≈ 3.43 nM).

In the case of `CCC1(O)CC(OC2CC(N(C)C)C(OC3CC(O)C(OC4CCC(=O)C(C)O4)C(C)O3)C(C)O2)c2c(O)c3c(c(O)c2C1OC1CC(N(C)C)C(OC2CC(O)C(OC4CCC(=O)C(C)O4)C(C)O2)C(C)O1)C(=O)c1cccc(O)c1C3=O` (centres unmarked) [DTR-E, ditrisarubicin E], the “Percent survival (%)” value with Leukemia L 1210 (Dose 0.0078 mg/kg/day) is given as 102%; with Leukemia L 1210 (Dose 0.0156 mg/kg/day) it was 102%; in the series with Leukemia L 1210 (Dose 0.0313 mg/kg/day) it was 119%; with Leukemia L 1210 (Dose 0.0625 mg/kg/day), 163%; with Leukemia L 1210 (Dose 0.125 mg/kg/day) it was 156%; in the series with Leukemia L 1210 (Dose 0.25 mg/kg/day) it was 106%. In the series on leukemic cells P 388 (setting [1]), the concentration for half-maximal inhibition (IC50) is 7 ng/mL (≈ 5.91 nM).

As to `CCC1(O)CC(OC2CC(N(C)C)C(OC3CC4OC5CC(=O)C(C)OC5OC4C(C)O3)C(C)O2)c2c(O)c3c(c(O)c2C1OC1CC(N(C)C)C(OC2CCC(OC4CCC(O)C(C)O4)C(C)O2)C(C)O1)C(=O)c1cccc(O)c1C3=O` (centres unmarked) [DTR-F, ditrisarubicin F], the “Percent survival (%)” value is on record as 101% in the series with Leukemia L 1210 (Dose 0.0078 mg/kg/day); 120% with Leukemia L 1210 (Dose 0.0156 mg/kg/day); 127% in the series with Leukemia L 1210 (Dose 0.0313 mg/kg/day); 133% with Leukemia L 1210 (Dose 0.0625 mg/kg/day); 152% with Leukemia L 1210 (Dose 0.125 mg/kg/day); 133% in the series with Leukemia L 1210 (Dose 0.25 mg/kg/day). The “Toxicity remark in the percent survival cell” value in the series on Leukemia L 1210 (Dose 0.25 mg/kg/day) is given as “Toxin”. The half-maximal inhibitory concentration (IC50) in the series on leukemic cells P 388 worked out at 3.8 ng/mL (≈ 3.25 nM).

For `CCC1(O)CC(OC2CC(N(C)C)C(OC3CC4OC5CC(=O)C(C)OC5OC4C(C)O3)C(C)O2)c2c(O)c3c(c(O)c2C1OC1CC(N(C)C)C(OC2CC(O)C(OC4CCC(O)C(C)O4)C(C)O2)C(C)O1)C(=O)c1cccc(O)c1C3=O` (centres unmarked) [DTR-G, ditrisarubicin G], the “Percent survival (%)” value in the series with Leukemia L 1210 (Dose 0.0078 mg/kg/day) amounted to 109%; with Leukemia L 1210 (Dose 0.0156 mg/kg/day) it was 111%; in the series on Leukemia L 1210 (Dose 0.0313 mg/kg/day) it was 117%; in the series with Leukemia L 1210 (Dose 0.0625 mg/kg/day) it was 163%; in the series with Leukemia L 1210 (Dose 0.125 mg/kg/day), 138%; in the series with Leukemia L 1210 (Dose 0.25 mg/kg/day) it was 125%. Further, in the series with Leukemia L 1210 (Dose 0.25 mg/kg/day), the “Toxicity remark in the percent survival cell” value is listed as “Toxin”. The same molecule yielded an IC50 with leukemic cells P 388 of 4.5 ng/mL (≈ 3.8 nM).

Molecule `CCC1(O)CC(OC2CC(N(C)C)C(OC3CC4OC5CC(=O)C(C)OC5OC4C(C)O3)C(C)O2)c2c(O)c3c(c(O)c2C1OC1CC(N(C)C)C(OC2CC(O)C(O)C(C)O2)C(C)O1)C(=O)c1cccc(O)c1C3=O` (centres unmarked) [DTR-G/de-Ro] had a half-maximal inhibitory concentration (IC50) in the series with leukemic cells P 388 of 12 ng/mL (≈ 11.2 nM).

Regarding `CCC1(O)CC(OC2CC(N(C)C)C(OC3CC(O)C(OC4CCC(O)C(C)O4)C(C)O3)C(C)O2)c2c(O)c3c(c(O)c2C1OC1CC(N(C)C)C(OC2CC4OC5CC(=O)C(C)OC5OC4C(C)O2)C(C)O1)C(=O)c1cccc(O)c1C3=O` (centres unmarked) [DTR-GR, ditrisarubicin GR], the concentration for half-maximal inhibition (IC50) in the series with leukemic cells P 388 was 4.2 ng/mL (≈ 3.54 nM).

`CCC1(O)CC(OC2CC(N(C)C)C(OC3CC(O)C(O)C(C)O3)C(C)O2)c2c(O)c3c(c(O)c2C1OC1CC(N(C)C)C(OC2CC4OC5CC(=O)C(C)OC5OC4C(C)O2)C(C)O1)C(=O)c1cccc(O)c1C3=O` (centres unmarked) [DTR-GR/de-Ro] returned an IC50 in the series with leukemic cells P 388 of 20 ng/mL (≈ 18.7 nM).
